According to patent US9938284B2, “Organic compounds” (INTRA-CELLULAR THERAPIES, INC., priority 2014, dated 2018):

Experiment: Pharmacokinetic analysis in mice, plasma and brain levels by LC-MS/MS
Assay type: in vivo
Conditions: male C57 BL/6 mice, 10 mg/kg oral (PO)
Experimental: Pharmacokinetic Analysis of the Compounds of the Invention
Animals: Male, C57 BL/6 mice (Jackson Labs, 25-30 g in body weight) are provided by Jackson Laboratories. Up to five mice are housed per cage and are maintained under a 12 hour light/dark cycle with access to food and water ad libitum. All procedures for the handling and use of animals follow the guidelines of the Institutional Animal Care and Use Committee (IACUC) of Columbia University, in accordance with NIH guidelines. Eight week-old mice (N=3/dose level or treatment group) are used in the experiments.
Experimental Treatment: Compounds: Selected Compounds of the Invention are evaluated in the present study. […]
Compound Preparation: Powdered stocks of the test compound(s) are measured and dissolved in 3% 1N HCl, 5% Labrasol and 92% of 5% TPGS in 0.05M Citrate buffer (CB, pH 4.0). […]
Treatment of Animals: Mice (N=3 mice/dose/time point) receive a 10 mg/kg oral (PO) dose of the test compound(s) at time 0. […] Plasma and brain tissue samples are processed and analyzed by the analytical group using LC-MS/MS methods, as described below. […]
Each tube is vortexed, then centrifuged for 20 min at 15000 rpm using a Tomy benchtop centrifuge at 4° C. Standard is an internal standard used for LC-MS/MS quantitation. […]
RESULTS: Plasma and Brain Analysis: All the test compound(s) tested could be detected and analyzed when spiked into control plasma. […]

## Cc1nnc2n(C)c(=O)c3c(Nc4ccccc4)n(Cc4ccc(-c5cccc(F)n5)cc4)nc3n12 [Example 2, 2-(4-(6-Fluoro-pyridin-2-yl)-benzyl)-5,8-dimethyl-3-phenylamino-2H,5H-pyrazolo[4,3-e][1,2,4]triazolo[4,3-a]pyrimidin-4-one]
C57BL/6, mouse, brain/plasma, 0.25-2 h, read-out: B/P ratio (Brain AUC(0-2h)/Plasma AUC(0-2h))
  Kp: ≤ 0.15
  oral bioavailability: display oral bioavailability
